{"source": "patent US6309825A", "about": "“Analytical and therapeutic agents” (University of Leicester, priority 1995, dated 2001)", "key": {"avidin [1]": {"target": "T1, avidin (Gallus gallus, UniProt P02701)", "T1 construct": "mature chain without signal peptide", "T1 sequence (P02701 25-152)": "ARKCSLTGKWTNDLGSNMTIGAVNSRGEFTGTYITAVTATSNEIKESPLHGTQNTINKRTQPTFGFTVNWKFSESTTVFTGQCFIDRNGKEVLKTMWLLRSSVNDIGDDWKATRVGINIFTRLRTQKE", "assay": "Capillary electrophoresis analysis of binding", "description": "Capillary electrophoresis was performed using a Beckman […].) controlled by accompanying System Gold (RTM) software. All analyses were carried out using an untreated fused silica capillary of 57 cm total length and 75 μm internal diameter. […] Samples were then placed on ice until analysed by CE. The electrophoresis solution was 10 mM sodium tetraborate (pH 9.3) filtered through a 0.45 μm filter. Samples were loaded using positive pressure (nominal 0.5 psi) for 5 seconds at 25° C. The run time was 10 minutes under an applied voltage of 30 kV with a rise time of 0.17 minutes (approx. 10.2 seconds). Detection was by absorbence at 200 nm and comparison with known standards. Concentration of each compound was estimated from peak height."}, "avidin [2]": {"target": "T1, avidin", "assay": "Inhibition of avidin binding to hydrogen peroxide treated cells", "settings": "avidin conjugate preincubated with competitor; all at 100 μM (biotin 10 μM)", "description": "Cells were washed in warm PBS. Cultures were fixed and permeabilised with ice-cold methanol for 15 minutes, rehydrated in PBS before blocking with PBS containing 10% (w/v) normal goat serum (NGS). […] The control, PBS in the absence of competitor, was treated in parallel. […] Fixed cells were incubated with the solutions for 1 hour in the dark at room temperature. The slides were washed three times in PBS before coverslips were mounted on the slides using VECTORSHIELD (RTM) (Vector Laboratories, Peterborough, U.K.), a glycerol-based anti-bleaching mountant."}, "avidin [3]": {"target": "T1, avidin", "assay": "Enzyme-linked avidin binding assay, competition experiments", "settings": "competitor 10 μM, co-incubation, avidin-HRP, paraformaldehyde-fixed DNA", "description": "Treatment of DNA with methylene blue leads to the oxidation of deoxyguanosine residues to 8-oxodeoxyguanosine. DNA (0.5 mg/ml in water) was incubated in the presence of methylene blue (20 μg/ml final concentration in 0.1 M tris, pH 8.5) in a petri dish on ice shielded from a white light source by 0.5 cm water in an upturned petri dish lid (light source to DNA distance was 3 cm). Irradiation was for 3 hours at which time solid sodium chloride was added to a final concentration of 1 M and the DNA precipitated with ethanol. The DNA was removed and dissolved in de-ionized water. The DNA was re-precipitated and washed twice more to remove any remaining methylene blue.\nAvidin-horse radish peroxidase (avidin-HRP) (Sigma) binding to methylene blue-treated DNA was compared to its binding to untreated DNA. Treatment of DNA with methylene blue leads to the generation of oxidised base products including 8-oxodeoxyguanosine. Competition experiments were carried out to define the specificity of binding of avidin to DNA. Damaged and native DNA bind to ELISA plates and in initial experiments, native and methylene blue-treated double-stranded and single-stranded DNA were bound to ELISA plates (Immuno plate MAXISORP (RTM), Nunc) at 50 μg/ml in PBS (50 μl/well). However since it is difficult to quantify the amount of DNA remaining after the various procedures, Millipore MULTISCREEN (RTM)filtration plates were used in this experiment. Native and methylene blue-treated double-stranded and single-stranded DNA ([…] in water) was added to appropriate wells ([…]) of MULTISCREEN-HV 96-well plates. […] Following washing with PBS 3 times, detection of bound peroxidase-labelled avidin was performed using 50 μl/well of o-phenylenediamine (0.5 mg/ml in 0.05 M phosphate-citrate, pH 5.0, and containing 0.03% w/v sodium perborate as a substitute for H2 O2) as substrate; the reaction was stopped after 20 minutes at room temperature using 2M […] (25 μl/well) and the product determined spectrophotometrically at 492 nm. […]"}, "avidin [4]": {"target": "T1, avidin", "assay": "Fluorescent binding assay (FBA) with avidin-FITCS", "settings": "for concentration at which avidin binding reached a maximum: base bound to a substratum of fixed cells, avidin-FITCS", "description": "(§1) Cultures of IMR 32 cells were grown in 96-well plates as described above and allowed to differentiate. Untreated cultures were fixed and permeabilised as above to provide a substrate to which 8-oxodeoxyguanosinewould bind thus permitting FAAs to be performed. Various concentrations of either the normal or the oxidised base were incubated on these plates (100 μl/well) for 1 hour. The ELISA plates were then washed 3 times with PBS before visualising bound base with either avidin-conjugated FITCS (1:200 in PBS for 1 hour) or with a FITCS-conjugated anti-biotin monoclonal antibody (1:80 in PBS for 1 hour). The level of binding was quantified with a fluorescence plate reader (Denley, Billingshurst, U.K.), excitation 485 nm and emission 535 nm."}, "[5]": {"test_system": "monoclonal antibody to biotin", "assay": "Fluorescent binding assay (FBA) with FITCS-conjugated anti-biotin monoclonal antibody", "parameters": "species or system goat", "settings": "base bound to a substratum of fixed cells", "description": "Avidin-FITCS conjugate was from Sigma (A 2050), as was monoclonal, goat anti-biotin-FITCS conjugate antibody (clone number BN-34) (F4024).\nas §1"}, "IMR 32 cells [6]": {"test_system": "IMR 32 cells", "assay": "UVA exposure with α-tocopherol preincubation, fluorescent assessment of avidin binding", "format": "cell-based", "settings": "200 μM preincubation", "description": "(§2) Differentiated cells were exposed to UVA irradiation with or without preincubation with the lipid-phase antioxidant α-tocopherol. The level of UVA irradiation was monitored in each experiment with a radiometer. Antioxidant was added to the existing medium 24 hours prior to irradiation at a final concentration of 200 μM (stock made up immediately prior to use in ethanol). […] Medium was removed prior to irradiation and cells washed in HBSS. The cells were irradiated from above at room temperature. Controls were sham irradiated. The cells were fixed as described below.\nCells were washed in warm PBS. Cultures were fixed and permeabilised with ice-cold methanol for 15 minutes, rehydrated in PBS before blocking with PBS containing 10% (w/v) normal goat serum (NGS). […] DNA damage was visualised with avidin-conjugated fluorescein isothiocyanate (FITCS) (1:200 in PBS for 1 hour) or with a FITCS-conjugated anti-biotin monoclonal antibody (1:80 in PBS for 1 hour) for either fluorescence microscopy or for quantitative assessment with a fluorescence plate reader (Denley, Billingshurst, U.K.)."}, "IMR 32 cells [7]": {"test_system": "IMR 32 cells", "assay": "MTT assay after UVA exposure", "format": "cell-based", "settings": "α-tocopherol pre-incubation, 24 hours post-irradiation", "description": "as §2"}, "IMR 32 cells [8]": {"test_system": "IMR 32 cells", "assay": "cells", "description": "After differentiation, media was carefully aspirated and prewarmed Hanks buffered salt solution (HBSS) added to each well (200 μl) with or without various concentrations of freshly prepared hydrogen peroxide. The cultures were incubated with hydrogen peroxide for 1 hour after which the HBSS was replaced with fresh media (α-MEM with 5% (v/v) HIFCS and 1% (v/v) non-essential amino acids) and allowed to recover for 24 hours under standard incubation conditions before cell death was assessed using the MTT assay and binding of avidin assessed by fluorescence analysis.\nCells were prefixed by the addition of 2% (w/v) paraformaldehyde (in phosphate buffered saline (PBS) at pH 7.4) for 15 mins after washing the cells with PBS. Cells were washed in warm PBS. Cultures were fixed and permeabilised with ice-cold methanol for 15 minutes, rehydrated in PBS before blocking with PBS containing 10% (w/v) normal goat serum (NGS). The blocking solution was washed off with PBS containing 0.2% (w/v) NGS."}}}
{"compound": "O=C(O)CCCC[C@@H]1SC[C@@H]2NC(=O)N[C@@H]21", "note": "[biotin]", "values": [{"measurement": "recovery of unbound biotin after incubation with avidin", "setting": "avidin [1]; biotin 100 μM, various concentrations of avidin, theoretical values assume 4 biotin molecules per avidin", "value": "very close to the theoretical values expected"}, {"measurement": "inhibition of avidin-FITCS binding to hydrogen peroxide treated cells", "setting": "avidin [2]", "value": "prevented binding"}]}
{"compound": "Nc1nc2c([nH]c(=O)n2[C@H]2C[C@H](O)[C@@H](CO)O2)c(=O)[nH]1", "note": "[8-oxodeoxyguanosine]", "values": [{"measurement": "inhibition of avidin binding to double-stranded, methylene blue treated DNA", "setting": "avidin [3]", "value": "greatest inhibition"}, {"measurement": "theoretical sensitivity of avidin binding (detectable amount)", "setting": "avidin [4]; assuming 100% binding of 8-oxodeoxyguanosine to the substratum", "value": "10^4 molecules"}, {"measurement": "concentration at which avidin binding reached a maximum", "setting": "avidin [4]", "value": "10^-15 M"}, {"measurement": "concentration at which binding of the monoclonal antibody to biotin reached a maximum", "setting": "[5]", "value": "10^-9 M"}, {"measurement": "inhibition of avidin-FITCS binding to hydrogen peroxide treated cells", "setting": "avidin [2]", "value": "inhibited binding"}]}
{"compound": "Cc1c(C)c2c(c(C)c1O)CCC(C)(CCCC(C)CCCC(C)CCCC(C)C)O2", "note": "(stereo not drawn) [α-tocopherol]", "values": [{"measurement": "effect on avidin binding to UVA irradiated cells, longer periods of irradiation", "setting": "IMR 32 cells [6]; 24 hours post-irradiation", "value": "not effective in reducing binding"}, {"measurement": "effect on avidin binding to UVA irradiated cells, short periods of irradiation", "setting": "IMR 32 cells [6]; 24 hours post-irradiation", "value": "reduced the level of avidin binding"}, {"measurement": "effect on avidin binding over the range of irradiation times studied", "setting": "IMR 32 cells [6]; multiple range ANOVA", "value": "significantly (p=0.003) reduced the binding of avidin"}, {"measurement": "effect on UVA-induced increase in MTT metabolism", "setting": "IMR 32 cells [7]", "value": "prevented"}]}
{"compound": "Nc1nc2c(ncn2[C@@H]2O[C@H](CO)[C@@H](O)[C@H]2O)c(=O)[nH]1", "note": "[guanosine]", "values": [{"measurement": "inhibition of avidin binding to double-stranded, methylene blue treated DNA", "setting": "avidin [3]", "value": "inhibited binding"}]}
{"compound": "OO", "note": "[hydrogen peroxide]", "values": [{"measurement": "hydrogen peroxide concentration at which the level of avidin binding plateaued", "setting": "IMR 32 cells [8]; 1 hour exposure, 24 hours recovery", "value": 100, "unit": "nM"}, {"measurement": "minimal effective concentration", "setting": "IMR 32 cells [8]; Homo sapiens, IMR-32, 1 h, read-out: hydrogen peroxide concentration at which avidin binding was statistically different from control", "value": 0.01, "unit": "µM"}]}
{"compound": "Nc1nc2nc[nH]c2c(=O)[nH]1", "note": "[guanine]", "values": [{"measurement": "inhibition of avidin binding to double-stranded, methylene blue treated DNA", "setting": "avidin [3]", "value": "inhibited binding"}, {"measurement": "inhibition of avidin-FITCS binding to hydrogen peroxide treated cells", "setting": "avidin [2]", "value": "did not"}]}
{"compound": "Nc1nc2c(ncn2[C@H]2C[C@H](O)[C@@H](CO)O2)c(=O)[nH]1", "note": "[deoxyguanosine]", "values": [{"measurement": "concentration at which avidin binding reached a maximum", "setting": "avidin [4]", "value": "10^-6 M"}, {"measurement": "concentration at which binding of the monoclonal antibody to biotin reached a maximum", "setting": "[5]", "value": "10^-9 M"}]}
{"compound": "Nc1nc2[nH]c(=O)[nH]c2c(=O)[nH]1", "note": "[8-oxoguanine]", "values": [{"measurement": "rate of binding to avidin", "setting": "avidin [1]; purely chemical system, minimal preincubation", "value": "extremely rapid"}]}
